{
  "source": "patent US12493040B2",
  "about": "“Cancer detection method using sense of smell of nematode” (HIROTSU BIO SCIENCE INC., priority 2013, dated 2025)",
  "key": {"nematodes (C. elegans) [1]": {"tested_on": "nematodes (C. elegans)", "conditions": "sri-14 mutant; 4M NaCl", "description": "The present inventor has used 4 M NaCl for osmotic stimulus, and has assayed an osmotic pressure avoidance behavior, as previously reported (38)."}, "[2]": {"tested_on": "RNAi-treated eri-1 (mg366) nematodes", "assay": "RNAi screening of olfactory receptor genes: chemotaxis assay of RNAi-treated nematodes to odorants", "type": "in vivo, Caenorhabditis elegans", "procedure": "The RNAi assay was carried out by performing an RNAi method involving the feeding (feeding RNAi method) of eri-1 (mg366) (19), using an Ahringer library (37).\n(§1) Nine adult eri-1 mutants were placed on an NGM plate containing isopropyl 1-D-1-thiogalactopyranoside (0.19 g/L), ampicillin (60 mg/L), and Escherichia coli (E. coli), and were then cultured for 4 days. Subsequently, the adult worms were used in a chemotaxis assay. The chemotaxis assay was carried out as previously reported (6, 17). In the chemotaxis assay, the present inventor has used 30 to 50 worms in each experiment in which 1 μl of 10^−3- or 10^−4-diluted odorant (low concentration), or 1 and 5 μl of undiluted odorants (high concentration) were used.\nThe z score and a control value in each single test from 2SD were calculated in all days (Table 3) or every day. The z score was used as a threshold indicating a great difference (−1.96 and 1.96, P<0.05). […] Accordingly, the present inventor has used the z score±1 (−0.96 and 0.96, P<0.33) as a weaker threshold."}, "nematodes (C. elegans) [3]": {"tested_on": "nematodes (C. elegans)", "assay": "Chemotaxis assay of wild-type, mutant, neuron-specific knockdown, neuron-ablated or interneuron-inhibited nematodes to odorants", "type": "in vivo, Caenorhabditis elegans", "procedure": "Except for the eri-1 mutant that was cultured with Escherichia coli (E. coli) OP50, the nematodes (C. elegans) were cultured at 20° C. under standard conditions in a nematode growth medium (NGM) plate (36) comprising Escherichia coli NA22 as a food source. The used wild-type nematodes were of a Bristol N2 strain. As other nematode strains, GR1373: eri-1 (mg366), VC2123: sri-14 (ok2865), CX3410: odr-10 (ky225), and MT7929: unc-13 (e51) were used.\nas §1\nA gene to knock down the function of sri-14 in specific neurons was constructed, as previously reported (24). The target region of sri-14 (a 1.6-kb genome sequence) was amplified using the following two primers: […]\nThe gene expression of ASH was carried out using a sra-6 (20) promoter, and that of AWC was carried out using ceh-36 (39) and srd-17 promoters.\nThe present inventor has used mouse caspase-1 (mCasp1) for ablation of the AWA, AWB, AWC and ASH neurons. mCasp1 was each expressed by odr-10 (11), str-1 (15), ceh-36 (39), and sra-6 (20) promoters, respectively. Moreover, for inhibition of interneurons, unc-103 (gf) was used. The AIA-, AIB-, AIY-, or AIZ-specific expression of the unc-103 (gf) was carried out using a gcy-28.d (29), npr-9 (40), ttx-3 (41, 42), or lin-11 (43, 44) promoter, respectively.\nTotal RNA, which had been isolated using PureLink RNA Minikit (Ambion), was converted to cDNA by ReverTra Ace qPCR master mix using gDNA Remover (Toyobo) in accordance with the instructions made by the manufacturer. The sri-14 cDNA was amplified using the following two primers, was then digested with Nhe I and Kpn I, and was then inserted into a pPD-DEST vector (Invitrogen): […]"}, "AWA neurons": {"tested_on": "AWA neurons", "assay": "Calcium imaging (YC3.60, microfluidic device) of AWA neurons to diacetyl", "type": "in vivo, Caenorhabditis elegans", "procedure": "(§2) In order to monitor the response of the AWA, AWB, AWC and ASH neurons, the present inventor has produced strains expressing YC3.60, using odr-10, str-1, odr-3, and sra-6 promoters (11, 15, 20, and 45), respectively. As previously reported (33, 46, 47), calcium imaging was carried out using a microfluidic device. In an experiment using such a microfluidic device, a nematode was captured by a microchannel such that the nose of the nematode was exposed to running water containing a solution of diacetyl [10^−5-diluted (low concentration) and 10^−3-diluted (high concentration)], or a solution with no smell, and thus, each nematode was immobilized. The room temperature was set from 20° C. to 23° C. The fluorescence image of YC3.60 was taken using Zeiss Axioplan 2 comprising 40× objective lens and a 3CCD digital camera (C7780, Hamamatsu Photonics). All images were recovered at an exposure time of 200 ms. The time stacks of AWA, AWB, AWC, and ASH cell bodies were captured, and thereafter, using AquaCosmos software (ver. 2.6, Hamamatsu Photonics), the emission ratio between a yellow fluorescent protein (YFP) and a cyan fluorescent protein (CFP) was analyzed. This ratio was calculated as YEP intensity/CFP intensity (R), and the average ratio in 10-second window (−10 to 0 seconds) was set as RO."}, "ASH neurons": {"tested_on": "ASH neurons", "assay": "Calcium imaging (YC3.60, microfluidic device) of ASH neurons to diacetyl", "type": "in vivo, Caenorhabditis elegans", "procedure": "as §2"}, "AWC neurons": {"tested_on": "AWC neurons", "assay": "Calcium imaging (YC3.60, microfluidic device) of AWC neurons to diacetyl", "type": "in vivo, Caenorhabditis elegans", "conditions": "wild-type; removal of high concentration of diacetyl (10^−3 diluted)", "procedure": "as §2"}, "AWB neurons": {"tested_on": "AWB neurons", "assay": "Calcium imaging (YC3.60, microfluidic device) of AWB neurons to diacetyl", "type": "in vivo, Caenorhabditis elegans", "procedure": "as §2"}, "[4]": {"conditions": "high concentration of diacetyl (5 μl, undiluted)"}, "[5]": {"conditions": "unc-103 (gf) expression, high concentration of diacetyl (5 μl, undiluted)"}, "[6]": {"conditions": "high concentration of diacetyl (10^−3 diluted)"}, "[7]": {"conditions": "low concentration of diacetyl (10^−5 diluted)"}, "[8]": {"conditions": "low (10^−5 diluted) and high (10^−3 diluted) concentration of diacetyl"}},
  "data": [
    {"compound": "[Cl-].[Na+]", "note": "[NaCl]", "values": [
      {"measurement": "avoidance behavior to high osmotic stimulus", "setting": "nematodes (C. elegans) [1]", "result": "normal avoidance behavior"}
    ]},
    {"compound": "CC(=O)C(C)=O", "note": "[diacetyl]", "values": [
      {"measurement": "avoidance from diacetyl after RNAi of sri-14", "setting": "[2]; RNAi of sri-14, high concentration of diacetyl (5 μl, undiluted)", "result": "significantly strong defect in the avoidance"},
      {"measurement": "response (chemotaxis) to diacetyl after knockdown of odr-10", "setting": "[2]; eri-1 mutant, RNAi of odr-10, low concentration (10; diluted) of diacetyl", "result": "specific defect in the response"},
      {"measurement": "avoidance behavior from diacetyl after RNAi of srh-25, srh-79, srh-216 or srh-281", "setting": "[2]; high concentration of diacetyl (5 μl, undiluted), repeated assay", "result": "significant and reproducible defect"},
      {"measurement": "response of AWA and ASH double-ablated nematodes", "setting": "nematodes (C. elegans) [3]; high concentration of diacetyl", "result": "more severe defect"},
      {"measurement": "avoidance behavior of ASH-ablated nematodes", "setting": "nematodes (C. elegans) [3]; [4]", "result": "avoidance behavior was inhibited"},
      {"measurement": "avoidance defect of sri-14 mutant with ASH-specific expression of sri-14 cDNA", "setting": "nematodes (C. elegans) [3]; [4]", "result": "rescued"},
      {"measurement": "avoidance defect of sri-14 mutant with AWA-, AWB- or AWC-specific expression of sri-14 cDNA", "setting": "nematodes (C. elegans) [3]; [4]", "result": "partially rescued or was not rescued"},
      {"measurement": "avoidance of AWA-ablated nematodes", "setting": "nematodes (C. elegans) [3]; [4]", "result": "decrease in the avoidance"},
      {"measurement": "chemotaxis of AWB- or AWC-ablated nematodes", "setting": "nematodes (C. elegans) [3]; [4]", "result": "did not exhibit a defect in the chemotaxis"},
      {"measurement": "attraction of AWA-ablated nematodes", "setting": "nematodes (C. elegans) [3]; low concentration of diacetyl (10^−3 diluted)", "result": "decrease in the attraction"},
      {"measurement": "attraction of nematodes with interneurons inhibited", "setting": "nematodes (C. elegans) [3]; low concentration of diacetyl (10^−3 diluted), except for MY", "result": "not influenced"},
      {"measurement": "chemotaxis of odr-10 mutant", "setting": "nematodes (C. elegans) [3]; high concentration of diacetyl", "result": "normal chemotaxis"},
      {"measurement": "chemotaxis of odr-10 mutant", "setting": "nematodes (C. elegans) [3]; low concentration of diacetyl", "result": "reduced attraction"},
      {"measurement": "avoidance response of sri-14 mutant", "setting": "nematodes (C. elegans) [3]; sri-14 (ok2865) mutant, high concentration of diacetyl", "result": "defect in the avoidance response"},
      {"measurement": "reaction of sri-14 loss-of-function mutant", "setting": "nematodes (C. elegans) [3]; sri-14 mutant, low concentration of diacetyl", "result": "normal reaction"},
      {"measurement": "response of nematodes with AIA, AIY or AIZ interneurons inhibited", "setting": "nematodes (C. elegans) [3]; [5]", "result": "from an avoidance response to an attraction response"},
      {"measurement": "response of nematodes with AIB interneurons inhibited", "setting": "nematodes (C. elegans) [3]; [5]", "result": "attenuated the avoidance response"},
      {"measurement": "avoidance from diacetyl, ASH-specific knockdown of sri-14", "setting": "nematodes (C. elegans) [3]; wild-type nematode, ASH-specific RNAi of sri-14, high concentration of diacetyl (5 μl, undiluted)", "result": "defect in the avoidance"},
      {"measurement": "avoidance from diacetyl, AWC-specific knockdown of sri-14", "setting": "nematodes (C. elegans) [3]; wild-type nematode, AWC-specific RNAi of sri-14, high concentration of diacetyl (5 μl, undiluted)", "result": "abnormality was not observed"},
      {"measurement": "calcium response of AWA neurons, odr-10 mutants and wild-type nematodes", "setting": "AWA neurons; [6]", "result": "normally responded"},
      {"measurement": "calcium response of AWA neurons, odr-10 mutants", "setting": "AWA neurons; [7]", "result": "did not respond"},
      {"measurement": "calcium response of AWA neurons, wild-type nematodes or sri-14 mutants", "setting": "AWA neurons; [7]", "result": "intracellular calcium was increased"},
      {"measurement": "Ca2+ response of ASH neurons, odr-10 mutant", "setting": "ASH neurons; [6]", "result": "normally induced"},
      {"measurement": "Ca2+ response of ASH neurons, sri-14 mutant", "setting": "ASH neurons; [6]", "result": "significantly reduced"},
      {"measurement": "Ca2+ response of ASH, ASH-specific knockdown of sri-14 in wild-type nematodes", "setting": "ASH neurons; [6]", "result": "reduced"},
      {"measurement": "calcium response of ASH neurons, AWA-ablated nematodes", "setting": "ASH neurons; [6]", "result": "enhances the calcium response"},
      {"measurement": "defect in ASH response of sri-14 mutant with ASH-specific expression of wild-type sri-14", "setting": "ASH neurons; [6]", "result": "rescued"},
      {"measurement": "Ca2+ response of ASH neurons, wild-type nematodes", "setting": "ASH neurons; [8]", "result": "Ca2+ response only to a high concentration of diacetyl was detected"},
      {"measurement": "calcium response of ASH neurons, unc-13 mutants vs wild type", "setting": "ASH neurons; unc-13(e51), high concentration of diacetyl (10^−3 diluted)", "result": "significantly larger"},
      {"measurement": "Ca2+ response of AWC neurons after removal of diacetyl", "setting": "AWC neurons", "result": "a Ca2+ response occurs"},
      {"measurement": "Ca2+ response of wild-type AWB neurons after removal of the smell", "setting": "AWB neurons; [8]", "result": "slight Ca2+ response"},
      {"measurement": "Ca2+ response of AWB neurons with ectopic expression of SRI-14", "setting": "AWB neurons; removal of high concentration of diacetyl (10^−3 diluted), vs wild-type AWB", "result": "significantly enhanced"},
      {"measurement": "Ca2+ response of AWB neurons with ectopic expression of SRI-14", "setting": "AWB neurons; removal of low concentration of diacetyl (10^−5 diluted)", "result": "did not change the response"}
    ]}
  ]
}
